Entries after “also recorded” stand apart in the source; their conditions may differ.
Columns and labels:
[1] = tested on: liver bile acids; assay: Liver bile acid analysis (targeted LC-MS) in WD mice; type: in vivo, mice (male B6 129SF1/J)
Description: Animal experiments. Male B6 129SF1/J mice at 6 weeks of age were obtained from Jackson Laboratories (Bar Harbor, ME). Mice were acclimatized to the animal facility for one week. At the start of the experiment, mice were randomly divided into four groups (n=10 for each group). Three of the four groups were fed ad libitum a Western diet (WD) with 40% Kcal from fat and containing 0.15% cholesterol (D12079B, Research Diets) and a sugar water (SW) solution (23.1 g/L d-fructose+18.9 g/L d-glucose) as previously described (DIAMOND model (15)). After 8 weeks, the three groups of WD-fed mice were randomly selected for treatment with vehicle (WD group) or low (WD-50 group) or high dose (WD-100 group) of […]. The WD group was fed WD and drank sugar water. The WD-50 and WD-100 groups were fed WD and drank sugar water containing, respectively, 50 or 100 mg […] per kg body weight. The treatments were continued for another 8 weeks. Water bottles containing SW and […] or only SW were changed every other day. A fourth group of mice was fed a low-fat control diet (D12450B, Research Diets) and normal water for 16 weeks (CN group) (FIG. 9A). FIG. 9A presents the study design. […] The supernatant was transferred into a new sample tube and analyzed by LC-MS. […] The calculated bile acid concentrations were normalized to the level of spiked internal standard for each sample.

[2] = tested on: inflammatory cytokines in liver tissue; assay: Liver cytokine measurements (bead-based 13-cytokine panel) in WD mice; type: in vivo, mice (male B6 129SF1/J); settings: week 16
Description: Animal experiments. Male B6 129SF1/J mice at 6 weeks of age were obtained from Jackson Laboratories (Bar Harbor, ME). Mice were acclimatized to the animal facility for one week. At the start of the experiment, mice were randomly divided into four groups (n=10 for each group). Three of the four groups were fed ad libitum a Western diet (WD) with 40% Kcal from fat and containing 0.15% cholesterol (D12079B, Research Diets) and a sugar water (SW) solution (23.1 g/L d-fructose+18.9 g/L d-glucose) as previously described (DIAMOND model (15)). After 8 weeks, the three groups of WD-fed mice were randomly selected for treatment with vehicle (WD group) or low (WD-50 group) or high dose (WD-100 group) of […]. The WD group was fed WD and drank sugar water. The WD-50 and WD-100 groups were fed WD and drank sugar water containing, respectively, 50 or 100 mg […] per kg body weight. The treatments were continued for another 8 weeks. Water bottles containing SW and […] or only SW were changed every other day. […] The supernatant was transferred into a new tube and the total protein concentration was measured with the BCA protein assay (Thermo Fisher Scientific, Waltham, MA). A panel of 13 cytokines was quantified with a bead-based ELISA kit (BioLegend, San Diego, CA) following the manufacturer's protocol. […]

O=C([O-])Cc1c[nH]c2ccccc12.[Na+] [I3A, Indole-3-acetate sodium salt]
liver bile acid profile ([1]; WD-50 group vs WD): did not show any significant changes in liver bile acid profile | liver total bile acids and primary bile acids ([1]; WD-100 group vs WD (WD: reduced total, increased primary bile acids)): showed the opposite trend | liver IL-10 ([2]; I3A treated vs WD): downregulated this cytokine | expression of pro-inflammatory cytokines in liver (panel, TNFα, IL-6, Mcp-1 etc.) ([2]; WD-50 and WD-100 vs WD, sodium salt): dose-dependently attenuated the production of type 1, 2 and 3 cytokines; also recorded: reduced the expression of these cytokines in a dose-dependent manner

Source: US20240189279A1, “IMMUNOMODULATORY COMPOSITIONS AND METHODS OF USE THEREOF” (THE TEXAS A&M UNIVERSITY SYSTEM, priority 2022, published 2024)
